Measured values as given in patent US10421761B2, “Compounds for kinase modulation, and indications therefor” (Plexxikon Inc., priority 2013, dated 2019).

Tests used:
[1] = tested on: IPC-298 (NRAS Q61L) cell line; assay: IPC-298 P-ERK cell activation assay (AlphaScreen); type: cell-based, human; conditions: Homo sapiens; P-ERK cell activation, IPC-298; numeric bounds; read-out: Cell activity (EC50 μM) IPC-298_P-ERK
Summary of the method: (§1)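 Phospho-ERK1/2 (Thr202/Tyr204) in lysates quantified via AlphaScreen bead proximity, after one-hour, 37° C. exposure of cells to eight compound concentrations. Lines: IPC-298 human melanoma with activated NRAS; B9 mouse squamous carcinoma with activated HRAS.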

[2] = molecular target: T1, BRAF V600E (Homo sapiens, UniProt P15056, V600E); assay: BRAF V600E biochemical kinase activity assay (AlphaScreen, biotin-MEK1 substrate); conditions: BRAF V600E biochemical inhibitory activity
T1 construct: purchased Upstate Biotechnology

[3] = tested on: B9 (HRAS Q61L) cell line; assay: B9 P-ERK cell activation assay (AlphaScreen); type: cell-based, mouse; conditions: Mus musculus; P-ERK cell activation, B9; numeric bounds; read-out: Cell activity (EC50 μM) B9_pERK
Summary of the method: as §1

[4] = tested on: A375 (BRAF V600E) cell line; assay: A375 P-ERK inhibition assay (AlphaScreen); type: cell-based, human; conditions: Homo sapiens, A-375; A375_P-ERK
Summary of the method: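 Phospho-ERK1/2 (Thr202/Tyr204) detected in lysates by AlphaScreen proximity signal, pairing a total-ERK antibody with a phospho-specific antibody. Before lysis, A375 cells received compound as an 8-point titration for one hour at 37° C.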

T1 sequence (P15056 whole entry V600E): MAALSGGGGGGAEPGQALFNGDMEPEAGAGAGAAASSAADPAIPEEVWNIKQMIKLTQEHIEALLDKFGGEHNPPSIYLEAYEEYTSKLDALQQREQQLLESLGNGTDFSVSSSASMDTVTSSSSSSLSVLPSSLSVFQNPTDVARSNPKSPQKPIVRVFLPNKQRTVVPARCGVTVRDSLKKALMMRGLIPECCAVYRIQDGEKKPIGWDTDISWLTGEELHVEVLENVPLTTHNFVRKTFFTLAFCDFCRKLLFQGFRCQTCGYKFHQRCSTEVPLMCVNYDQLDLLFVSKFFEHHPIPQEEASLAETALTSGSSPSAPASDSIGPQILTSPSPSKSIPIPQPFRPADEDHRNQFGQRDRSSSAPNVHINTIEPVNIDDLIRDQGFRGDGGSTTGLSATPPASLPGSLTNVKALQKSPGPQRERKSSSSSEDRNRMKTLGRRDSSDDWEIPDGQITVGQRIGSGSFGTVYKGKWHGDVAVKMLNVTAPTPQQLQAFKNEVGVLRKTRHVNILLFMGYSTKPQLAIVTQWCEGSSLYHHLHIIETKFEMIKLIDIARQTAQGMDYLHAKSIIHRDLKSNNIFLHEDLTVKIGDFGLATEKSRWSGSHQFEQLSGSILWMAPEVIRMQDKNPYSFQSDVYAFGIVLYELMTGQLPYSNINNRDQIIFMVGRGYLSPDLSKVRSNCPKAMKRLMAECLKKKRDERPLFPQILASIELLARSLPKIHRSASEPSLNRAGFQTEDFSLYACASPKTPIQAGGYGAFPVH

Row | EC50 [1] | IC50 [2] | EC50 [3] | IC50 [4] | Structure (SMILES)
1 | > 10 µM | 0.0001 to 1 µM | > 10 µM | 0.0001 to 1 µM | O=C(c1cccc(NS(=O)(=O)N2CCCC2)c1F)c1c[nH]c2ncnc(NCC3CC(O)C3)c12 (stereo not shown) [P-2098, N-[2-fluoro-3-[4-[(3-hydroxycyclobutyl)methylamino]-7H-pyrrolo[2,3-d]pyrimidine-5-carbonyl]phenyl]pyrrolidine-1-sulfonamide]
2 | > 10 µM | 0.0001 to 1 µM | > 10 µM | 0.0001 to 1 µM | CCCNc1ncnc2[nH]cc(C(=O)c3c(F)ccc(NS(=O)(=O)N(C)CC)c3F)c12 [P-2099, 5-[3-[[ethyl(methyl)sulfamoyl]amino]-2,6-difluoro-benzoyl]-4-(propylamino)-7H-pyrrolo[2,3-d]pyrimidine]
3 | > 10 µM | 0.0001 to 1 µM | > 10 µM | 0.0001 to 1 µM | CCN(C)S(=O)(=O)Nc1ccc(F)c(C(=O)c2c[nH]c3ncnc(NCCOC)c23)c1F [P-2100, 5-[3-[[ethyl(methyl)sulfamoyl]amino]-2,6-difluoro-benzoyl]-4-(2-methoxyethylamino)-7H-pyrrolo[2,3-d]pyrimidine]
4 | > 10 µM | 0.0001 to 1 µM | > 10 µM | 0.0001 to 1 µM | CCN(C)S(=O)(=O)Nc1ccc(F)c(C(=O)c2c[nH]c3ncnc(NC4CCC4)c23)c1F [P-2101, 4-(cyclobutylamino)-5-[3-[[ethyl(methyl)sulfamoyl]amino]-2,6-difluoro-benzoyl]-7H-pyrrolo[2,3-d]pyrimidine]
5 | > 10 µM | 0.0001 to 1 µM | > 10 µM | 1 to 10 µM | NCCNc1ncnc2[nH]cc(C(=O)c3cccc(NS(=O)(=O)N4CCCC4)c3F)c12 [P-2102, N-[3-[4-(2-aminoethylamino)-7H-pyrrolo[2,3-d]pyrimidine-5-carbonyl]-2-fluoro-phenyl]pyrrolidine-1-sulfonamide]
6 | > 10 µM | 0.0001 to 1 µM | > 10 µM | 0.0001 to 1 µM | CCOC(=O)CNc1ncnc2[nH]cc(C(=O)c3cccc(NS(=O)(=O)N4CCCC4)c3F)c12 [P-2103, ethyl 2-[[5-[2-fluoro-3-(pyrrolidin-1-ylsulfonylamino)benzoyl]-7H-pyrrolo[2,3-d]pyrimidin-4-yl]amino]acetate]
7 | > 10 µM | 0.0001 to 1 µM | > 10 µM | 0.0001 to 1 µM | COCCNc1ncnc2[nH]cc(C(=O)c3cccc(NS(=O)(=O)N4CCCC4)c3F)c12 [P-2104, N-[2-fluoro-3-[4-(2-methoxyethylamino)-7H-pyrrolo[2,3-d]pyrimidine-5-carbonyl]phenyl]pyrrolidine-1-sulfonamide]
8 | > 10 µM | 0.0001 to 1 µM | > 10 µM | 0.0001 to 1 µM | COCCCNc1ncnc2[nH]cc(C(=O)c3cccc(NS(=O)(=O)N4CCCC4)c3F)c12 [P-2105, N-[2-fluoro-3-[4-(3-methoxypropylamino)-7H-pyrrolo[2,3-d]pyrimidine-5-carbonyl]phenyl]pyrrolidine-1-sulfonamide]
9 | > 10 µM | 0.0001 to 1 µM | > 10 µM | 0.0001 to 1 µM | CCC(C)S(=O)(=O)Nc1cccc(-c2nc(C(C)(C)C)sc2-c2ccnc(N)n2)c1F (stereo not shown) [P-2106, N-[3-[5-(2-aminopyrimidin-4-yl)-2-tert-butyl-thiazol-4-yl]-2-fluoro-phenyl]butane-2-sulfonamide]
10 | > 10 µM | 0.0001 to 1 µM | > 10 µM | 1 to 10 µM | COC(=O)C(CC(C)C)Nc1ncnc2[nH]cc(C(=O)c3cccc(NS(=O)(=O)N4CCCC4)c3F)c12 (stereo not shown) [P-2107, methyl 2-[[5-[2-fluoro-3-(pyrrolidin-1-ylsulfonylamino)benzoyl]-7H-pyrrolo[2,3-d]pyrimidin-4-yl]amino]-4-methyl-pentanoate]
11 | > 10 µM | 0.0001 to 1 µM | > 10 µM | 0.0001 to 1 µM | CC(C)(O)CCNc1ncnc2[nH]cc(C(=O)c3cccc(NS(=O)(=O)N4CCCC4)c3F)c12 [P-2108, N-[2-fluoro-3-[4-[(3-hydroxy-3-methyl-butyl)amino]-7H-pyrrolo[2,3-d]pyrimidine-5-carbonyl]phenyl]pyrrolidine-1-sulfonamide]
12 | > 10 µM | 0.0001 to 1 µM | > 10 µM | 1 to 10 µM | O=C(O)CNc1ncnc2[nH]cc(C(=O)c3cccc(NS(=O)(=O)N4CCCC4)c3F)c12 [P-2109, 2-[[5-[2-fluoro-3-(pyrrolidin-1-ylsulfonylamino)benzoyl]-7H-pyrrolo[2,3-d]pyrimidin-4-yl]amino]acetic acid]
13 | > 10 µM | 0.0001 to 1 µM | > 10 µM | 0.0001 to 1 µM | O=C(c1cccc(NS(=O)(=O)N2CCCC2)c1F)c1c[nH]c2ncnc(NCCN3CCOCC3)c12 [P-2110, N-[2-fluoro-3-[4-(2-morpholinoethylamino)-7H-pyrrolo[2,3-d]pyrimidine-5-carbonyl]phenyl]pyrrolidine-1-sulfonamide]
14 | > 10 µM | 0.0001 to 1 µM | > 10 µM | 0.0001 to 1 µM | O=C(c1cccc(NS(=O)(=O)N2CCCC2)c1F)c1c[nH]c2ncnc(NCCCN3CCOCC3)c12 [P-2111, N-[2-fluoro-3-[4-(3-morpholinopropylamino)-7H-pyrrolo[2,3-d]pyrimidine-5-carbonyl]phenyl]pyrrolidine-1-sulfonamide]
15 | > 10 µM | 0.0001 to 1 µM | > 10 µM | 0.0001 to 1 µM | CN(C)CC(C)(C)CNc1ncnc2[nH]cc(C(=O)c3cccc(NS(=O)(=O)N4CCCC4)c3F)c12 [P-2113, N-[3-[4-[[3-(dimethylamino)-2,2-dimethyl-propyl]amino]-7H-pyrrolo[2,3-d]pyrimidine-5-carbonyl]-2-fluoro-phenyl]pyrrolidine-1-sulfonamide]
16 | > 10 µM | 0.0001 to 1 µM | > 10 µM | 0.0001 to 1 µM | CCN(C)S(=O)(=O)Nc1cccc(C(=O)c2c[nH]c3ncnc(NCCCOC)c23)c1F [P-2115, 5-[3-[[ethyl(methyl)sulfamoyl]amino]-2-fluoro-benzoyl]-4-(3-methoxypropylamino)-7H-pyrrolo[2,3-d]pyrimidine]
17 | > 10 µM | 0.0001 to 1 µM | > 10 µM | 0.0001 to 1 µM | CCN(C)S(=O)(=O)Nc1ccc(F)c(C(=O)c2c[nH]c3ncnc(NCCCOC)c23)c1F [P-2116, 5-[3-[[ethyl(methyl)sulfamoyl]amino]-2,6-difluoro-benzoyl]-4-(3-methoxypropylamino)-7H-pyrrolo[2,3-d]pyrimidine]
18 | > 10 µM | 0.0001 to 1 µM | > 10 µM | 0.0001 to 1 µM | CCN(C)S(=O)(=O)Nc1ccc(F)c(C(=O)c2c[nH]c3ncnc(NC(C)C)c23)c1F [P-2117, 5-[3-[[ethyl(methyl)sulfamoyl]amino]-2,6-difluoro-benzoyl]-4-(isopropylamino)-7H-pyrrolo[2,3-d]pyrimidine]
19 | > 10 µM | 0.0001 to 1 µM | > 10 µM | 0.0001 to 1 µM | CCN(C)S(=O)(=O)Nc1ccc(F)c(C(=O)c2c[nH]c3ncnc(N[C@H](C)C4CC4)c23)c1F [P-2118, 4-[[(1R)-1-cyclopropylethyl]amino]-5-[3-[[ethyl(methyl)sulfamoyl]amino]-2,6-difluoro-benzoyl]-7H-pyrrolo[2,3-d]pyrimidine]
20 | > 10 µM | 0.0001 to 1 µM | > 10 µM | 0.0001 to 1 µM | CCN(C)S(=O)(=O)Nc1ccc(F)c(C(=O)c2c[nH]c3ncnc(NC4CCOCC4)c23)c1F [P-2119, 5-[3-[[ethyl(methyl)sulfamoyl]amino]-2,6-difluoro-benzoyl]-4-(tetrahydropyran-4-ylamino)-7H-pyrrolo[2,3-d]pyrimidine]
21 | > 10 µM | 0.0001 to 1 µM | > 10 µM | 1 to 10 µM | CC(C)(C)c1nc(-c2cccc(NS(=O)(=O)N3CCCC3)c2F)c(-c2ccnc3[nH]ccc23)s1 [P-2120, N-[3-[2-tert-butyl-5-(1H-pyrrolo[2,3-b]pyridin-4-yl)thiazol-4-yl]-2-fluoro-phenyl]pyrrolidine-1-sulfonamide]
22 | > 10 µM | 0.0001 to 1 µM | > 10 µM | 0.0001 to 1 µM | Cc1cc2c(-c3sc(C(C)(C)C)nc3-c3cccc(NS(=O)(=O)N4CCCC4)c3F)ccnc2[nH]1 [P-2121, N-[3-[2-tert-butyl-5-(2-methyl-1H-pyrrolo[2,3-b]pyridin-4-yl)thiazol-4-yl]-2-fluoro-phenyl]pyrrolidine-1-sulfonamide]
23 | > 10 µM | 0.0001 to 1 µM | > 10 µM | 0.0001 to 1 µM | CC(C)(C)c1nc(-c2cccc(NS(=O)(=O)N3CCCC3)c2F)c(-c2ncnc3[nH]ccc23)s1 [P-2122, N-[3-[2-tert-butyl-5-(7H-pyrrolo[2,3-d]pyrimidin-4-yl)thiazol-4-yl]-2-fluoro-phenyl]pyrrolidine-1-sulfonamide]
24 | > 10 µM | 0.0001 to 1 µM | > 10 µM | 0.0001 to 1 µM | Cc1cc2c(-c3sc(C(C)(C)C)nc3-c3cccc(NS(=O)(=O)N4CCCC4)c3F)ncnc2[nH]1 [P-2123, N-[3-[2-tert-butyl-5-(6-methyl-7H-pyrrolo[2,3-d]pyrimidin-4-yl)thiazol-4-yl]-2-fluoro-phenyl]pyrrolidine-1-sulfonamide]
25 | > 1 µM | 0.0001 to 1 µM | > 10 µM | 0.0001 to 1 µM | Cc1nc2c(-c3sc(C(C)(C)C)nc3-c3cccc(NS(=O)(=O)N4CCCC4)c3F)ncnc2[nH]1 [P-2124, N-[3-[2-tert-butyl-5-(8-methyl-9H-purin-6-yl)thiazol-4-yl]-2-fluoro-phenyl]pyrrolidine-1-sulfonamide]
